Data from patent US20020137929A1, “1 - (3-heterocyclylphenyl) isothiourea, -isourea, -guanidine and -amidine herbicidal agents” (Intellectual Property Department, BASF Aktiengesellschaft, priority 1998, published 2002).

Tests used:
[1] = test system: IPOHE (Morningglory, Ivyleaf); assay: Postemergence herbicidal evaluation; type: in vivo, Ipomoea hederacea; conditions: postemergence
In short: (§1)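 First, seedlings were raised for around two weeks. Next, test material in 50/50 acetone/water containing 0.5% TWEEN 20 was sprayed through a nozzle at 40 psi, equivalent to about 0.0156–0.500 kg/ha. Finally, after 4–5 weeks in the greenhouse, plants were rated 0–9.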

ABUTH (Velvetleaf) = assay: Preemergence herbicidal evaluation; type: in vivo, Abutilon theophrasti; conditions: rated 4-5 weeks after treatment, rating scale 0-9
In short: (§2)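 Herbicidal effect scored visually, 0-9, at 4 to 5 weeks against a control; compound applied preemergence by aqueous acetone spray to seeded soil at about 0.0156 to 0.500 kg/ha.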

[2] = test system: SAGPY (Arrowhead (Pygmaea)); assay: Preemergence weed control under flooded paddy conditions; type: in vivo, Sagittaria pygmaea; conditions: rated 3-4 weeks after treatment
In short: (§3)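 Flooded-pot preemergence screen with silt loam and seeds in the upper 0.5 cm. Dose about 0.0313 to 0.500 kg/ha, delivered into flood water; visual 0-9 score after 3 to 4 weeks.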

CASOB (Sicklepod) [3] = assay: Preemergence herbicidal evaluation; type: in vivo, Cassia obtusifolia; conditions: rated 4-5 weeks after treatment, rating scale 0-9
In short: as §2

AMBEL (Ragweed, Common) [4] = assay: Postemergence herbicidal evaluation; type: in vivo, Ambrosia artemisifolia; conditions: postemergence
In short: as §1

ORYSAT (Rice, Tebonnet) = assay: Preemergence herbicidal evaluation; type: in vivo, Oryza sativa, (L.) Tebonnet; conditions: rated 4-5 weeks after treatment, rating scale 0-9
In short: as §2

[5] = test system: IPOHE (Morningglory, Ivyleaf); assay: Preemergence herbicidal evaluation; type: in vivo, Ipomoea hederacea; conditions: rated 4-5 weeks after treatment, rating scale 0-9
In short: as §2

[6] = test system: GLXMAW (Soybean, Williams); assay: Postemergence herbicidal evaluation; type: in vivo, Glycine max, (L.) Merr. cv Williams; conditions: postemergence
In short: as §1

[7] = test system: CHEAL (Lambsquarters, Common); assay: Preemergence herbicidal evaluation; type: in vivo, Chenopodium album; conditions: rated 4-5 weeks after treatment, rating scale 0-9
In short: as §2

AMBEL (Ragweed, Common) [8] = assay: Preemergence herbicidal evaluation; type: in vivo, Ambrosia artemisifolia; conditions: rated 4-5 weeks after treatment, rating scale 0-9
In short: as §2

MOOVA (Monochoria) = assay: Preemergence weed control under flooded paddy conditions; type: in vivo, Monochoria vaginalis; conditions: rated 3-4 weeks after treatment
In short: as §3

[9] = test system: CHEAL (Lambsquarters, Common); assay: Postemergence herbicidal evaluation; type: in vivo, Chenopodium album; conditions: postemergence
In short: as §1

ECHCG (Barnyardgrass) = assay: Postemergence herbicidal evaluation; type: in vivo, Echinochloa crus-galli; conditions: postemergence
In short: as §1

[10] = test system: TRZAWR (Wheat, Winter, cv Riband); assay: Postemergence herbicidal evaluation; type: in vivo, Triticum aestivum; conditions: postemergence
In short: as §1

[11] = test system: GLXMAW (Soybean, Williams); assay: Preemergence herbicidal evaluation; type: in vivo, Glycine max, (L.) Merr. cv Williams; conditions: rated 4-5 weeks after treatment, rating scale 0-9
In short: as §2

CASOB (Sicklepod) [12] = assay: Postemergence herbicidal evaluation; type: in vivo, Cassia obtusifolia; conditions: postemergence
In short: as §1

Cn1c(C(F)(F)F)cc(=O)n(-c2cc(N=C3SCC(=O)N3Cc3ccccc3Cl)c(Cl)cc2F)c1=O [Compound 143]
1.5: herbicidal rating TRZAWR ([10]; rate 0.0156 kg/ha)
1.0: Preemergence herbicidal rating ABUTH (ABUTH (Velvetleaf); rate 0.0313 kg/ha) | Preemergence herbicidal rating ABUTH (ABUTH (Velvetleaf); rate 0.0625 kg/ha) | Preemergence herbicidal rating CASOB (CASOB (Sicklepod) [3]; rate 0.2500 kg/ha) | Preemergence herbicidal rating ORYSAT (ORYSAT (Rice, Tebonnet); rate 0.2500 kg/ha) | Preemergence herbicidal rating IPOHE ([5]; rate 0.1250 kg/ha) | herbicidal rating ECHCG (ECHCG (Barnyardgrass); rate 0.0156 kg/ha) | herbicidal rating ECHCG (ECHCG (Barnyardgrass); rate 0.0625 kg/ha) | Preemergence herbicidal rating GLXMAW ([11]; rate 0.2500 kg/ha) | herbicidal rating CASOB (CASOB (Sicklepod) [12]; rate 0.0313 kg/ha)
4.0: herbicidal rating GLXMAW ([6]; rate 0.0156 kg/ha)
3.5: herbicidal rating TRZAWR ([10]; rate 0.0625 kg/ha)
7.0: Preemergence herbicidal rating CHEAL ([7]; rate 0.0313 kg/ha) | Preemergence herbicidal rating CHEAL ([7]; rate 0.0625 kg/ha)
2.0: Preemergence herbicidal rating AMBEL (AMBEL (Ragweed, Common) [8]; rate 0.1250 kg/ha) | herbicidal rating CHEAL ([9]; rate 0.0156 kg/ha) | herbicidal rating ECHCG (ECHCG (Barnyardgrass); rate 0.0313 kg/ha) | herbicidal rating TRZAWR ([10]; rate 0.0313 kg/ha)
4.5: herbicidal rating GLXMAW ([6]; rate 0.0313 kg/ha)
5.0: herbicidal effect rating, SAGPY ([2]; 0.2500 kg/ha) | herbicidal rating GLXMAW ([6]; rate 0.0625 kg/ha) | herbicidal effect rating, MOOVA (MOOVA (Monochoria); 0.0313 kg/ha)
3.0: Preemergence herbicidal rating IPOHE ([5]; rate 0.2500 kg/ha) | Preemergence herbicidal rating AMBEL (AMBEL (Ragweed, Common) [8]; rate 0.2500 kg/ha) | herbicidal rating CASOB (CASOB (Sicklepod) [12]; rate 0.0625 kg/ha)
9.0: herbicidal rating IPOHE ([1]; rate 0.0156 kg/ha) | herbicidal rating IPOHE ([1]; rate 0.0313 kg/ha) | herbicidal rating IPOHE ([1]; rate 0.0625 kg/ha) | Preemergence herbicidal rating ABUTH (ABUTH (Velvetleaf); rate 0.2500 kg/ha) | herbicidal rating AMBEL (AMBEL (Ragweed, Common) [4]; rate 0.0156 kg/ha) | herbicidal rating AMBEL (AMBEL (Ragweed, Common) [4]; rate 0.0313 kg/ha) | herbicidal rating AMBEL (AMBEL (Ragweed, Common) [4]; rate 0.0625 kg/ha) | Preemergence herbicidal rating CHEAL ([7]; rate 0.1250 kg/ha) | Preemergence herbicidal rating CHEAL ([7]; rate 0.2500 kg/ha)
6.0: Preemergence herbicidal rating ABUTH (ABUTH (Velvetleaf); rate 0.1250 kg/ha) | herbicidal effect rating, MOOVA (MOOVA (Monochoria); 0.0625 kg/ha) | herbicidal effect rating, MOOVA (MOOVA (Monochoria); 0.1250 kg/ha) | herbicidal effect rating, MOOVA (MOOVA (Monochoria); 0.2500 kg/ha) | herbicidal rating CHEAL ([9]; rate 0.0313 kg/ha) | herbicidal rating CHEAL ([9]; rate 0.0625 kg/ha)
0.0: herbicidal effect rating, SAGPY ([2]; 0.0313 kg/ha) | herbicidal effect rating, SAGPY ([2]; 0.0625 kg/ha) | herbicidal effect rating, SAGPY ([2]; 0.1250 kg/ha) | Preemergence herbicidal rating CASOB (CASOB (Sicklepod) [3]; rate 0.0313 kg/ha) | Preemergence herbicidal rating CASOB (CASOB (Sicklepod) [3]; rate 0.0625 kg/ha) | Preemergence herbicidal rating CASOB (CASOB (Sicklepod) [3]; rate 0.1250 kg/ha) | Preemergence herbicidal rating ORYSAT (ORYSAT (Rice, Tebonnet); rate 0.0313 kg/ha) | Preemergence herbicidal rating ORYSAT (ORYSAT (Rice, Tebonnet); rate 0.0625 kg/ha) | Preemergence herbicidal rating ORYSAT (ORYSAT (Rice, Tebonnet); rate 0.1250 kg/ha) | Preemergence herbicidal rating IPOHE ([5]; rate 0.0313 kg/ha) | Preemergence herbicidal rating IPOHE ([5]; rate 0.0625 kg/ha) | Preemergence herbicidal rating AMBEL (AMBEL (Ragweed, Common) [8]; rate 0.0313 kg/ha) | Preemergence herbicidal rating AMBEL (AMBEL (Ragweed, Common) [8]; rate 0.0625 kg/ha) | Preemergence herbicidal rating GLXMAW ([11]; rate 0.0313 kg/ha) | Preemergence herbicidal rating GLXMAW ([11]; rate 0.0625 kg/ha) | Preemergence herbicidal rating GLXMAW ([11]; rate 0.1250 kg/ha) | herbicidal rating CASOB (CASOB (Sicklepod) [12]; rate 0.0156 kg/ha)

Cn1c(C(F)(F)F)cc(=O)n(-c2cc(N=C3SCC(=O)N3Cc3ccc(Cl)cc3)c(Cl)cc2F)c1=O [Compound 145, 3-{4-Chloro-5-{[3-(p-chlorobenzyl)-4-oxo-2-thiazolidinylidene]amino}-2-fluorophenyl}-1-methyl-6-(trifluoromethyl)-2,4(1H,3H)-pyrimidinedione]
5.5: herbicidal rating GLXMAW ([6]; rate 0.0625 kg/ha)
5.0: herbicidal effect rating, SAGPY ([2]; 0.1250 kg/ha) | herbicidal effect rating, SAGPY ([2]; 0.2500 kg/ha) | Preemergence herbicidal rating IPOHE ([5]; rate 0.2500 kg/ha) | herbicidal rating GLXMAW ([6]; rate 0.0313 kg/ha) | Preemergence herbicidal rating AMBEL (AMBEL (Ragweed, Common) [8]; rate 0.1250 kg/ha) | herbicidal rating CHEAL ([9]; rate 0.0156 kg/ha) | herbicidal rating CASOB (CASOB (Sicklepod) [12]; rate 0.0625 kg/ha)
2.0: Preemergence herbicidal rating ABUTH (ABUTH (Velvetleaf); rate 0.0313 kg/ha) | herbicidal effect rating, SAGPY ([2]; 0.0625 kg/ha) | Preemergence herbicidal rating ORYSAT (ORYSAT (Rice, Tebonnet); rate 0.0625 kg/ha) | Preemergence herbicidal rating AMBEL (AMBEL (Ragweed, Common) [8]; rate 0.0625 kg/ha) | herbicidal rating ECHCG (ECHCG (Barnyardgrass); rate 0.0156 kg/ha) | Preemergence herbicidal rating GLXMAW ([11]; rate 0.2500 kg/ha) | herbicidal rating CASOB (CASOB (Sicklepod) [12]; rate 0.0313 kg/ha)
9.0: herbicidal rating IPOHE ([1]; rate 0.0156 kg/ha) | herbicidal rating IPOHE ([1]; rate 0.0313 kg/ha) | herbicidal rating IPOHE ([1]; rate 0.0625 kg/ha) | Preemergence herbicidal rating ABUTH (ABUTH (Velvetleaf); rate 0.1250 kg/ha) | herbicidal rating AMBEL (AMBEL (Ragweed, Common) [4]; rate 0.0156 kg/ha) | herbicidal rating AMBEL (AMBEL (Ragweed, Common) [4]; rate 0.0313 kg/ha) | herbicidal rating AMBEL (AMBEL (Ragweed, Common) [4]; rate 0.0625 kg/ha) | Preemergence herbicidal rating CHEAL ([7]; rate 0.0313 kg/ha) | Preemergence herbicidal rating CHEAL ([7]; rate 0.1250 kg/ha) | Preemergence herbicidal rating CHEAL ([7]; rate 0.2500 kg/ha) | herbicidal effect rating, MOOVA (MOOVA (Monochoria); 0.1250 kg/ha) | herbicidal effect rating, MOOVA (MOOVA (Monochoria); 0.2500 kg/ha) | herbicidal rating CHEAL ([9]; rate 0.0313 kg/ha) | herbicidal rating CHEAL ([9]; rate 0.0625 kg/ha)
4.5: herbicidal rating GLXMAW ([6]; rate 0.0156 kg/ha)
3.0: Preemergence herbicidal rating ABUTH (ABUTH (Velvetleaf); rate 0.0625 kg/ha) | Preemergence herbicidal rating ORYSAT (ORYSAT (Rice, Tebonnet); rate 0.1250 kg/ha) | herbicidal rating ECHCG (ECHCG (Barnyardgrass); rate 0.0313 kg/ha) | herbicidal rating ECHCG (ECHCG (Barnyardgrass); rate 0.0625 kg/ha) | herbicidal rating TRZAWR ([10]; rate 0.0156 kg/ha) | herbicidal rating TRZAWR ([10]; rate 0.0313 kg/ha)
4.0: herbicidal effect rating, MOOVA (MOOVA (Monochoria); 0.0313 kg/ha) | herbicidal rating TRZAWR ([10]; rate 0.0625 kg/ha)
6.0: Preemergence herbicidal rating ABUTH (ABUTH (Velvetleaf); rate 0.2500 kg/ha) | Preemergence herbicidal rating CASOB (CASOB (Sicklepod) [3]; rate 0.0625 kg/ha) | herbicidal effect rating, MOOVA (MOOVA (Monochoria); 0.0625 kg/ha)
0.0: Preemergence herbicidal rating ABUTH (ABUTH (Velvetleaf); rate 0.0156 kg/ha) | herbicidal effect rating, SAGPY ([2]; 0.0313 kg/ha) | Preemergence herbicidal rating IPOHE ([5]; rate 0.0156 kg/ha) | Preemergence herbicidal rating IPOHE ([5]; rate 0.0313 kg/ha) | Preemergence herbicidal rating IPOHE ([5]; rate 0.0625 kg/ha) | Preemergence herbicidal rating AMBEL (AMBEL (Ragweed, Common) [8]; rate 0.0156 kg/ha) | Preemergence herbicidal rating AMBEL (AMBEL (Ragweed, Common) [8]; rate 0.0313 kg/ha) | Preemergence herbicidal rating GLXMAW ([11]; rate 0.0156 kg/ha) | Preemergence herbicidal rating GLXMAW ([11]; rate 0.0313 kg/ha) | Preemergence herbicidal rating GLXMAW ([11]; rate 0.0625 kg/ha)
7.0: Preemergence herbicidal rating CASOB (CASOB (Sicklepod) [3]; rate 0.2500 kg/ha) | Preemergence herbicidal rating IPOHE ([5]; rate 0.1250 kg/ha) | Preemergence herbicidal rating CHEAL ([7]; rate 0.0156 kg/ha) | Preemergence herbicidal rating CHEAL ([7]; rate 0.0625 kg/ha) | Preemergence herbicidal rating AMBEL (AMBEL (Ragweed, Common) [8]; rate 0.2500 kg/ha)
1.0: Preemergence herbicidal rating CASOB (CASOB (Sicklepod) [3]; rate 0.0156 kg/ha) | Preemergence herbicidal rating CASOB (CASOB (Sicklepod) [3]; rate 0.0313 kg/ha) | Preemergence herbicidal rating CASOB (CASOB (Sicklepod) [3]; rate 0.1250 kg/ha) | Preemergence herbicidal rating ORYSAT (ORYSAT (Rice, Tebonnet); rate 0.0156 kg/ha) | Preemergence herbicidal rating ORYSAT (ORYSAT (Rice, Tebonnet); rate 0.0313 kg/ha) | Preemergence herbicidal rating ORYSAT (ORYSAT (Rice, Tebonnet); rate 0.2500 kg/ha) | Preemergence herbicidal rating GLXMAW ([11]; rate 0.1250 kg/ha) | herbicidal rating CASOB (CASOB (Sicklepod) [12]; rate 0.0156 kg/ha)
